Here are results for 34 molecules from ChEMBL document CHEMBL2029246, “Identification of benzoxazole analogs as novel, S1P(3) sparing S1P(1) agonists” (Bioorg Med Chem Lett, 2012).

pEC50: −log10 of the molar value. Activity calls are given as the source filed them. The rule behind the calls is not given here. Bounds are passed on as bounds.

The target in series [1] is Sphingosine 1-phosphate receptor 3 (Homo sapiens, UniProt Q99500). Briefly: Agonist activity at human SIP3 receptor assessed as calcium mobilization by GeneBLAzer assay. It is filed as functional. (Calcium assays in cells follow changes in intracellular calcium, usually with a dye or a luminescent sensor.)
Series [2] deals with Sphingosine 1-phosphate receptor 1 (Homo sapiens, UniProt P21453). Nature of the series: Agonist activity at SIP1 receptor by tango assay. Format: functional.
For series [3], the species on record is Homo sapiens. Briefly: Selectivity ratio of EC50 for SIP1 receptor to EC50 for human SIP3 receptor.
Series [4] is described as follows: Ratio of drug level in brain to blood in iv dosed mouse after 1 hr. It is filed as ADME, organism-based. As to conditions: read-out: BBR.
Series [5] can be described thus: Oral bioavailability in mouse at 2 mg/kg. It is filed as ADME, organism-based. As to conditions: in vivo.
The nature of series [6]: Half life in mouse at 2 mg/kg, po. Format: ADME, organism-based. Also on record: dose 2 mg/kg, route oral. As to conditions: in vivo.
Series [7] deals with Mus musculus. Briefly: Lymphopenia activity in mouse assessed as reduction in blood lymphocytes at 1 mg/kg after 4 hrs relative to control. Format: functional. More on the design: scale not given: the % may be the effect or the level left.
The nature of series [8]: Volume of distribution in iv dosed mouse. Format: ADME, organism-based. As to conditions: in vivo.
A short description of series [9]: Ratio of drug level in brain to blood in iv dosed mouse after 4 hrs. The note with it: read-out: BBR. Format: ADME, organism-based.
The nature of series [10]: Clearance in iv dosed mouse. Format: ADME, organism-based. As to conditions: in vivo.
A short description of series [11]: Cmax in mouse at 2 mg/kg, po. It is filed as ADME, organism-based. More on the design: dose 2 mg/kg, route oral. As to conditions: in vivo.
Series [12] deals with Mus musculus. Briefly: Lymphopenic activity in mouse assessed as reduction in blood lymphocytes at 1 mg/kg after 24 hrs relative to control. More on the design: dose 1 mg/kg. It is filed as functional, organism-based.
The nature of series [13]: AUC (0 to 24 hrs) in mouse at 2 mg/kg, po. Format: ADME, organism-based. Also on record: time < 24 hr, dose 2 mg/kg, route oral. As to conditions: plasma.
For series [14], the species on record is Mus musculus. Nature of the series: Lymphopenic activity in C57BL/6 mouse assessed as reduction in blood lymphocytes relative to control. Format: functional. More on the design: scale not given: the % may be the effect or the level left.
The species named for series [15] is Mus musculus. Nature of the series: Lymphopenic activity in C57BL/6 mouse assessed as reduction in blood lymphocytes after 4 to 8 weeks relative to control. It is filed as functional, organism-based.

Sphingosine 1-phosphate receptor 1, sequence (P21453 whole entry): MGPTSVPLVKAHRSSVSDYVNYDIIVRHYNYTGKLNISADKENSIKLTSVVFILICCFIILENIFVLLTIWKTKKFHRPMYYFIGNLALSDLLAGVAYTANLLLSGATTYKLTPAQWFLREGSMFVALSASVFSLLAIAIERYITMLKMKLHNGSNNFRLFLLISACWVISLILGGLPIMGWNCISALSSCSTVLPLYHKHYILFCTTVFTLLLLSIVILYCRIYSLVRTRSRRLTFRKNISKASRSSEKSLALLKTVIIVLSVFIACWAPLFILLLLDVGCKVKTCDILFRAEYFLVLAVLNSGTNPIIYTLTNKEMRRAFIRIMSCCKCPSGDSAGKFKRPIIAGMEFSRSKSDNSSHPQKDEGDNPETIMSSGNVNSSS
Sphingosine 1-phosphate receptor 3, sequence (Q99500 whole entry): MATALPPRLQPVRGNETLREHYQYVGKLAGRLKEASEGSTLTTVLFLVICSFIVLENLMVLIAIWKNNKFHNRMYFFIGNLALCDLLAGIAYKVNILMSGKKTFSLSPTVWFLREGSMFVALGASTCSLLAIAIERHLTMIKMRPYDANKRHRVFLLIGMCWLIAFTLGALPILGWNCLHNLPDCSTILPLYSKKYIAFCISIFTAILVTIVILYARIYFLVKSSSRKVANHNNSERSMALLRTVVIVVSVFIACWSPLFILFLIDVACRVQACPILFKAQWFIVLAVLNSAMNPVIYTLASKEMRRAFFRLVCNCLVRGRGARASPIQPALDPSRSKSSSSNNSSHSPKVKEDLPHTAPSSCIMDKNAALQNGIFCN

For `O=C(O)CN1CCN(c2ccc3oc(-c4ccc(-c5ccccc5)c(C(F)(F)F)c4)nc3c2)CC1`, the pEC50 in series [1] was 5.70; in series [2], 9.40.
The matching figures for `O=C(O)CCCCCc1ccc2[nH]c(-c3ccc(-c4ccccc4)c(C(F)(F)F)c3)cc2c1`: less than 5.00 and 6.90.
In the same order, the values of `O=C(O)CCNCCc1ccc2oc(-c3ccc(-c4ccccc4)c(C(F)(F)F)c3)nc2c1` are 6.70 and 10.50.
In the same order, the values of `CC(C)Oc1ccc(-c2nc3cc(CCCCC(=O)O)cnc3o2)cc1Cl` are less than 5.00 and 6.80.
`CC(C)Oc1ccc(-c2nc(-c3cccc4c3ccn4CCC(=O)O)no2)cc1Cl`: the Ratio EC50 in [3] turned out to be 1e+06. Besides, the pEC50 in [2] is 11.00.
On to `O=C(O)CC1CCN(c2ccc3oc(-c4ccc(-c5ccccc5)c(C(F)(F)F)c4)nc3c2)CC1`, for which the pEC50 is 5.90 in [1] and 8.90 in series [2].
In the same order, the values of `O=C(O)C1CN(CCCc2ccc3oc(-c4ccc(-c5ccccc5)c(C(F)(F)F)c4)nc3c2)C1` are 6.90 and 10.00.
Turning to `O=C(O)CCCCCc1ccc2oc(-c3ccc(-c4ccccc4)c(C(F)(F)F)c3)nc2c1`, the pEC50 in series [1] was less than 5.00; in series [2] it was 9.40.
As to `O=C(O)C1CCN(c2ccc3oc(-c4ccc(-c5ccccc5)c(C(F)(F)F)c4)nc3c2)CC1`, the Kp at 1 h in series [4] worked out at 1.45. The molecule further came in with a bioavailability in [5] of more than 100%. Further, the half-life in series [6] is 5.4 h. Besides, in [7], the Activity amounted to 37%. For the same molecule, the Vd in series [8] is 1.48 L/kg. Further, in [9], the Kp at 4 h was determined as 3.73. Also, the pEC50 in [1] is less than 5.50; in series [2], 9.20. The molecule also returned a clearance in [10] of 3.68 mL/min/kg. Besides, in series [11], the peak level (Cmax) was 1070 ng/mL. The outcome in [12] was inactive. In series [13], this molecule came in with an AUC(0-t) at 24 h of 10300 ng·h/mL.
For `CC(C)Oc1ccc(-c2nc3cc(CCC(=O)O)cnc3o2)cc1Cl`, the pEC50 in series [1] is less than 5.00; in [2], less than 5.50.
The matching figures for `O=C(O)CCN1CCC(c2ccc3oc(-c4ccc(-c5ccccc5)c(C(F)(F)F)c4)nc3c2)CC1`: 6.00 and 10.10.
Take `O=C(O)CNCCCc1ccc2oc(-c3ccc(-c4ccccc4)c(C(F)(F)F)c3)nc2c1`: the Ratio EC50 in series [3] was more than 1000. Besides, the pEC50 was 6.60 in series [1] and 10.50 in series [2].
`O=C(O)CCCCCc1ccn2nc(-c3ccc(-c4ccccc4)c(C(F)(F)F)c3)nc2c1`: the pEC50 was less than 5.00 in series [1] and 6.90 in [2].
The matching figures for `O=C(O)CCCCCc1cn2cc(-c3ccc(-c4ccccc4)c(C(F)(F)F)c3)nc2s1`: less than 5.00 and 7.20.
In the same order, the values of `O=C(O)CCCCCc1cnc2oc(-c3cc(-c4ccccc4)c(C(F)(F)F)s3)nc2c1` are less than 5.00 and 6.40.
In the same order, the values of `CC(C)Oc1ccc(-c2nc3cc(C(=O)O)cnc3o2)cc1Cl` are less than 5.00 and less than 5.50.
Consider `O=C(O)CCCCCc1ccn2cc(-c3ccc(-c4ccccc4)c(C(F)(F)F)c3)nc2c1`, for which the pEC50 is less than 5.00 in series [1] and 6.40 in series [2].
The matching figures for `O=C(O)C1CCN(CCc2ccc3oc(-c4ccc(-c5ccccc5)c(C(F)(F)F)c4)nc3c2)CC1`: 6.30 and 9.80.
In the same order, the values of `O=C(O)C1CCCN(CCCc2ccc3oc(-c4ccc(-c5ccccc5)c(C(F)(F)F)c4)nc3c2)C1` (centres undefined) are 5.70 and 9.30.
In the same order, the values of `CC(C)Oc1ccc(-c2nc(-c3cccc4c3c(Cl)cn4CCC(=O)O)no2)cc1Cl` are less than 5.00 and 10.60.
For the molecule `CC(C)Oc1ccc(-c2nc3cc(CCCC(=O)O)cnc3o2)cc1Cl`, the pEC50 in series [1] was less than 5.00; in [2], 6.00.
In the same order, the values of `CC(C)Oc1ccc(-c2nc3cc(CCCCCC(=O)O)cnc3o2)cc1C(F)(F)F` are less than 5.00 and 7.70.
The matching figures for `O=C(O)C1CN(CCc2ccc3oc(-c4ccc(-c5ccccc5)c(C(F)(F)F)c4)nc3c2)C1`: 6.10 and 9.40.
For `CC(C)Oc1ccc(-c2nc3cc(CCCCCC(=O)O)cnc3o2)cc1Cl`, the results for the pEC50 in series [1] and in series [2] were less than 5.00 and 6.80, respectively.
The matching figures for `O=C(O)CCCCCc1cnc2oc(-c3ccc(-c4ccccc4)c(C(F)(F)F)c3)nc2c1`: less than 5.00 and 9.50.
On to `O=C(O)C1CCN(CCCc2ccc3oc(-c4ccc(-c5ccccc5)c(C(F)(F)F)c4)nc3c2)CC1`, for which the pEC50 in series [1] is 6.30; in series [2], 9.10.
For the molecule `O=C(O)CCCCCc1cnc2sc(-c3ccc(-c4ccccc4)c(C(F)(F)F)c3)nc2c1`, the pEC50 in series [1] was less than 5.00; in [2] it was 8.00.
In the same order, the values of `O=C(O)C1CN(c2ccc3oc(-c4ccc(-c5ccccc5)c(C(F)(F)F)c4)nc3c2)C1` are 5.70 and 8.00.
In the same order, the values of `CC(C)Oc1ncc(-c2nc3cc(CCCCCC(=O)O)cnc3o2)cc1C(F)(F)F` are less than 5.00 and 8.20.
The matching figures for `CC(C)Oc1ccc(-c2nc3cc(CC(=O)O)cnc3o2)cc1Cl`: less than 5.00 and less than 5.50.
Take `CCCCCCCCc1ccc(CCC(N)(CO)CO)cc1.Cl` [FINGOLIMOD HYDROCHLORIDE]: the Activity in series [14] is recorded as 20%. In addition, the result in [15] was inactive.
In the case of `O=C(O)CN1CCC(c2ccc3oc(-c4ccc(-c5ccccc5)c(C(F)(F)F)c4)nc3c2)CC1`, the pEC50 was 5.70 in series [1] and 9.00 in series [2].
In the same order, the values of `CN(CCCc1ccc2oc(-c3ccc(-c4ccccc4)c(C(F)(F)F)c3)nc2c1)CC(=O)O` are 6.00 and 9.50.
In the same order, the values of `CC(C)Oc1ncc(-c2nc3cc(CCCCCC(=O)O)cnc3o2)cc1Cl` are less than 5.00 and 6.00.

The pEC50 is the negative decadic logarithm of the EC50, by convention in mol/L. In general, bioavailability refers to dose-corrected exposure relative to a reference, in per cent. By half-life is commonly meant the time in which the quantity being followed falls by half. By Vd is commonly meant the apparent volume that relates the amount in the body to the concentration in plasma or blood. In general, clearance refers to a measure of how efficiently the substance is removed, as volume per time. Usually Cmax stands for the maximum level reached in the sampled fluid or tissue. For orientation: AUC(0-t) means exposure summed from dosing to a finite time, without extrapolation to infinity.
